{"source": "patent US20250170096A1", "about": "“OXPHOS INHIBITORS FOR USE IN TREATING CANCER” (ImmunoMet Therapeutics, Inc., priority 2022, published 2025)", "key": {"OXPHOS": {"test_system": "OXPHOS", "test": "Pre- and post-treatment biopsies of patients receiving cancer therapies", "assay_type": "in vivo", "conditions": "for Effect of therapy on OXPHOS, post-treatment versus pre-treatment biopsies: across cancers, named as the most significant therapies", "text": "Biopsies were collected from subjects undergoing treatment for cancer (FIG. 1A)."}, "[1]": {"test_system": "Patient derived xenograft cells", "test": "Growth of patient derived xenograft cells treated in vitro", "assay_type": "cell-based", "conditions": "in vitro exposure of patient-derived xenograft cells to gemcitabine; FIG. 2", "description": "Patient derived xenograft cells were treated with the compound of Formula 1, Gemcitabine (Gem), or the compound of Formula 1 and gemcitabine together (FIG. 2). Cells treated with both Gem and Formula 1 grew slower than cells treated with Formula 1 or Gem alone."}}}
{"smiles": "N.N.O=C([O-])C1(C(=O)[O-])CCC1.[Pt+2]", "note": "[carboplatin]", "values": [{"measurement": "Effect of therapy on OXPHOS, post-treatment versus pre-treatment biopsies", "setting": "OXPHOS", "value": "increase OXPHOS"}, {"measurement": "OXPHOS following treatment", "setting": "OXPHOS; breast cancer, endometrial cancer, NSCLC, ovarian cancer, FIG. 1G", "value": "increase in OXPHOS"}]}
{"smiles": "O=P1(N(CCCl)CCCl)NCCCO1", "note": "(centres unmarked) [cyclophosphamide]", "values": [{"measurement": "Effect of therapy on OXPHOS, post-treatment versus pre-treatment biopsies", "setting": "OXPHOS", "value": "increase OXPHOS"}, {"measurement": "OXPHOS following treatment", "setting": "OXPHOS; breast cancer and sarcoma, FIG. 1F", "value": "increase in OXPHOS"}]}
{"smiles": "COc1cccc2c1C(=O)c1c(O)c3c(c(O)c1C2=O)C[C@@](O)(C(=O)CO)C[C@@H]3O[C@H]1C[C@H](N)[C@H](O)[C@H](C)O1", "note": "[doxorubicin]", "values": [{"measurement": "Effect of therapy on OXPHOS, post-treatment versus pre-treatment biopsies", "setting": "OXPHOS", "value": "increase OXPHOS"}, {"measurement": "OXPHOS following treatment", "setting": "OXPHOS; bladder cancer, breast cancer, sarcoma, FIG. 1H", "value": "increase in OXPHOS"}]}
{"smiles": "CNC(=O)c1ccc(N2C(=S)N(c3ccc(C#N)c(C(F)(F)F)c3)C(=O)C2(C)C)cc1F", "note": "[enzalutamide]", "values": [{"measurement": "Effect of therapy on OXPHOS, post-treatment versus pre-treatment biopsies", "setting": "OXPHOS", "value": "increase OXPHOS"}, {"measurement": "OXPHOS following treatment", "setting": "OXPHOS; prostate cancer, FIG. 1D", "value": "increase in OXPHOS"}]}
{"smiles": "C[C@]12CC[C@@H]3c4ccc(O)cc4C[C@@H](CCCCCCCCC[S+]([O-])CCCC(F)(F)C(F)(F)F)[C@H]3[C@@H]1CC[C@@H]2O", "note": "(some centres unmarked) [fulvestrant]", "values": [{"measurement": "Effect of therapy on OXPHOS, post-treatment versus pre-treatment biopsies", "setting": "OXPHOS", "value": "increase OXPHOS"}, {"measurement": "OXPHOS following treatment", "setting": "OXPHOS; breast cancer, FIG. 1E", "value": "increase in OXPHOS"}]}
{"smiles": "Nc1ccn([C@@H]2O[C@H](CO)[C@@H](O)C2(F)F)c(=O)n1", "note": "[gemcitabine, Gemcitabine]", "values": [{"measurement": "Sensitization of tumor cells to the compound of Formula 1", "setting": "[1]", "value": "sensitizes tumor cells to the compound of Formula 1"}]}
{"smiles": "N#Cc1ccc(C(c2ccc(C#N)cc2)n2cncn2)cc1", "note": "[letrozole]", "values": [{"measurement": "Effect of therapy on OXPHOS, post-treatment versus pre-treatment biopsies", "setting": "OXPHOS", "value": "increase OXPHOS"}, {"measurement": "OXPHOS following treatment", "setting": "OXPHOS; breast cancer, FIG. 1E", "value": "increase in OXPHOS"}]}
{"smiles": "CCNC(=O)[C@@H]1CCCN1C(=O)[C@H](CCCNC(=N)N)NC(=O)[C@H](CC(C)C)NC(=O)[C@@H](CC(C)C)NC(=O)[C@H](Cc1ccc(O)cc1)NC(=O)[C@H](CO)NC(=O)[C@H](Cc1c[nH]c2ccccc12)NC(=O)[C@H](Cc1c[nH]cn1)NC(=O)[C@@H]1CCC(=O)N1", "note": "[leuprolide]", "values": [{"measurement": "Effect of therapy on OXPHOS, post-treatment versus pre-treatment biopsies", "setting": "OXPHOS", "value": "increase OXPHOS"}, {"measurement": "OXPHOS following treatment", "setting": "OXPHOS; breast cancer and prostate cancer, FIG. 1C", "value": "increase in OXPHOS"}]}
{"smiles": "CC(=O)O[C@H]1C(=O)[C@@]2(C)[C@H]([C@H](OC(=O)c3ccccc3)[C@]3(O)C[C@H](OC(=O)[C@H](O)[C@@H](NC(=O)c4ccccc4)c4ccccc4)C(C)=C1C3(C)C)[C@]1(OC(C)=O)CO[C@@H]1C[C@@H]2O", "note": "[paclitaxel]", "values": [{"measurement": "Effect of therapy on OXPHOS, post-treatment versus pre-treatment biopsies", "setting": "OXPHOS", "value": "increase OXPHOS"}, {"measurement": "OXPHOS following treatment", "setting": "OXPHOS; breast cancer, endometrial cancer, NSCLC, ovarian cancer, FIG. 1I", "value": "increase in OXPHOS"}]}
